{"source": "patent US20030087830A1", "about": "“Low molecular weight components of cartilage, complexes of metals with amino acids, DI-peptides and analogs thereof; processes for preparation and therapeutic uses thereof” (priority 2001, published 2003)", "key": {"Endothelial cells [1]": {"test_system": "Endothelial cells", "experiment": "Endothelial cell tubule formation assay (tubulogenesis)", "type": "cell-based", "design": "key to Tubulogenesis: 0: Numerous capillary-like tube forming pentagonal network; +: Decrease of capillary-like tubes; ++: Dramatic decrease of capillary-like tubes; +++: Absence of capillary-like tubes", "procedure": "The endothelial cell tubule formation assay is a semi-quantitative assay that was performed to determine the ability of test samples to inhibit this multi-step process, which involves cell adhesion, migration, differentiation and growth, using a commercial kit (Chemicon). Briefly, endothelial cells were seeded on solid gel of Ecmatrix™ (Chemicon), basement proteins prepared from the Engelbreth Holm-Swarm (EHS) mouse tumor in microplate in a E-99 media (Sigma) supplemented with 5% FBS and VEGF (50 ng/ml) in the presence or absence of the test sample. Cells were incubated for a period of 24 hours at 37° C. Pictures were taken on the entire tissue culture dish using a binocular microscope for further evaluation."}, "[2]": {"test_system": "bFGF-stimulated blood vessel formation in Matrigel", "experiment": "Matrigel in vivo angiogenesis assay", "design": "species or system C57B1/6 mice", "conditions": "intra-peritoneal daily 10 days", "procedure": "The Matrigel™ in vivo assay was performed to determine the ability of test samples to inhibit blood vessel formation (antiangiogenic activity) and to establish their bioavailability in vivo.\nBriefly, liquid Matrigel™ (Becton Dickinson, Bedford, Mass.) was maintained at 4° C. and mixed thoroughly for at least 3 hours with 1,500 ng/ml basic fibroblast growth factor (bFGF) (R&D Systems, Minneapolis, Minn.) used as the primary angiogenic stimulus. The mixture (0.5 ml) was injected subcutaneously into the ventral midline of C57B1/6 mice, and treatment with different test samples or saline solution was initiated the same day. Additional animals were also injected with Matrigel™ containing no bFGF to serve as baseline controls. The animals were treated daily for a 10 day period (intra-peritonealy, 0.2 ml of each dose). At day 11, animals were injected with FITC-dextran 20 min prior to euthanizing treated mice. Matrigel™ gels were removed along with underlying peritoneum and prepared for FITC-dextran detection by fluorimetry. The concentration of FITC-dextran in the gels was calculated from a known concentration of FITC-dextran using a standard curve. The FITC-dextran content of the gels from compound-treated animals and controls was expressed as a percent of the positive bFGF-treated controls after the baseline control of FITC-dextran levels were subtracted from all groups."}, "C6 glioblastoma cells": {"test_system": "C6 glioblastoma cells", "experiment": "C6 glioblastoma cell proliferation", "type": "cell-based, rat", "conditions": "48 hours; free amino acids and Glu-Trp 2.5 mM, CuCl2 1.25 mM", "procedure": "(§1) Endothelial and tumor cell proliferation assays were performed to determine the ability of test samples to inhibit endothelial cell proliferation (antiangiogenic activity), normal cell proliferation,and tumor cell proliferation.\n(§2) Endothelial cells (Human umbilical vein endothelial cells (HUVEC), bovine aortic endothelial cells (BAEC)), skeletal muscle cells, human dermal fibroblasts (all from Clonetics, Walkersville, Md.) were respectively maintained in EBM-2, MDEM, SKGM and FGFM-2 complete media according to manufacturer's instructions. Tumor rat glioblastoma cell line (C6) was maintained in DMEM (Sigma, Oaksville, Ontario) supplemented with 10% fetal calf serum (FCS) and antibiotics in 5% CO2. Briefly, cells seeded in 96-well sterile tissue culture dishes were treated with increasing concentrations of different test samples for a period of 48 hours at 37° C. Cell number was then evaluated by a calorimetric assay using the cell proliferation reagent tetrazolium salt and the fluorimetric assay using DNA dye (Hoescht) according to the procedure established by the manufacturer (Boehringer Mannhein). The conversion of these tetrazolium salts into formazan occurs only in metabolically active cells. The percentage of cell inhibition was determined by comparison to untreated cells."}, "[3]": {"experiment": "Affinity of the amino acid with copper", "type": "physicochemical"}, "Endothelial cells [4]": {"test_system": "Endothelial cells", "experiment": "Endothelial cell migration assay (VEGF, modified Boyden chamber)", "type": "cell-based", "procedure": "The endothelial cell migration assay was performed to determine the ability of test samples to inhibit the chemotaxic activity of vascular endothelial growth factor (VEGF;R/D System, MN) using a modified Boyden chamber (Transwell™, Corning/Costar). Briefly, polyvinylidene difluoride filters (PVDF) were coated with Pronectin F (Biosources, CA), a constituent of basement membrane barrier. Boyden chambers were assembled by adding VEGF to the culture media in the lower chamber (chemoattractant). Endothelial cells suspended in cultured media in the presence or the absence of the test samples were added to the upper chamber. The chambers were then incubated for a period of 4.5 hours at 37° C. At the end of the incubation period, the cells from both side of the PVDF membrane were fixed with 3.7% formaldehyde. Cells from the upper surface of the membrane were mechanically removed, and the cells remaining on the underside of the membrane were stained with crystal violet (0.5%; Sigma). Cells were then carefully rinsed and the dye fixed to the cells was quantified with a microplate reader ([…]) after its solubilization with a solution of 50% citric acid (0.1M) in water and 50% ethanol."}, "human dermal fibroblasts": {"test_system": "human dermal fibroblasts", "experiment": "Fibroblast proliferation", "type": "cell-based", "conditions": "48 hours; free amino acids and Glu-Trp 2.5 mM, CuCl2 1.25 mM", "procedure": "as §1, §2"}, "[5]": {"test_system": "Striated muscle cells (skeletal muscle cells)", "experiment": "Striated muscle cell proliferation", "type": "cell-based", "conditions": "48 hours; free amino acids and Glu-Trp 2.5 mM, CuCl2 1.25 mM", "procedure": "as §1, §2"}, "[6]": {"test_system": "Endothelial cells (HUVEC, BAEC)", "experiment": "Endothelial cell proliferation", "type": "cell-based, human / bovine", "conditions": "48 hours; copper equivalent; NA = less than 50% at 1.25 mM copper equivalent; read-out: EC proliferation (EC50 mM)", "procedure": "as §1, §2\nAccording to the endothelial cell proliferation assay, the relative effectiveness of two compounds is compared by reference to the EC50 thereof. The EC50 is the concentration of compound at which the number of endothelial cells is reduced by 50% as compared to control. The efficacy of the test samples in EVT is established by the percent of eggs with altered angiogenesis at a given inhibitor dose of 0.6 mg of copper equivalent (see FIG. 6 for examples). A comparison of the antiangiogenic activity of the compounds of the present invention with divalent metal salts (CuCl2, MgCl2, ZnCl2, CoCl2) and uncoupled alpha-amino acids, alpha-imino acids, dipeptides, and nitrogenated molecules comprising a carboxylic acid group, such as creatine, is provided to illustrate that the formation of the amino acid-copper complex gives rise to complexes having antiangiogenic activity."}}, "data": [{"substance": "L-Asp Cu L-Asp [Compound 6]", "values": [{"measurement": "Tubulogenesis activity (in words)", "setting": "Endothelial cells [1]", "value": "important activity"}, {"measurement": "Tubulogenesis (in words)", "setting": "Endothelial cells [1]; 1.25 mmole (equivalent copper), 24 hours", "value": "Decrease of capillary-like tube formation"}, {"measurement": "Tubulogenesis", "setting": "Endothelial cells [1]; copper complexes, concentration not given, VEGF 50 ng/ml, 24 hours", "value": "+"}, {"measurement": "Matrigel in vivo % of inhibition", "setting": "[2]; 0.14 mg/Kg equivalent copper", "value": "27.7% of inhibition"}, {"measurement": "Matrigel in vivo % of inhibition", "setting": "[2]; 1.14 mg/Kg equivalent copper", "value": "22.6% of inhbition"}, {"measurement": "Matrigel in vivo % inhibition", "setting": "[2]; 1.4 mg/Kg equivalent copper", "value": 22.6, "unit": "%"}, {"measurement": "C6 glioblastoma (EC50 (mM))", "setting": "C6 glioblastoma cells", "value": "Non-active"}, {"measurement": "Affinity of the AA with Cooper", "setting": "[3]", "value": 16.0}, {"measurement": "Cell migration activity (in words)", "setting": "Endothelial cells [4]", "value": "important activity"}, {"measurement": "Migration % of inhibition", "setting": "Endothelial cells [4]; 1.25 mmole (equivalent copper), VEGF chemoattractant, 4.5 hours", "value": "82% of inhibition"}, {"measurement": "Cell Migration (% inhibition)", "setting": "Endothelial cells [4]; copper complexes, concentration not given, VEGF, 4.5 hours", "value": 82, "unit": "%"}, {"measurement": "EC50", "setting": "human dermal fibroblasts", "value": 1.15, "unit": "mM"}, {"measurement": "Striated muscle (EC50 (mM))", "setting": "[5]", "value": "Non-active"}, {"measurement": "EC50", "setting": "[6]", "value": 0.29, "unit": "mM"}]}]}
